Source: patent US20260250320A1, “LIPIDATED PEPTIDE INHIBITORS OF INTERLEUKIN-23 RECEPTOR” (Janssen Pharmaceutica NV, priority 2023, published 2026)
*1 amine or outer side, *2 acyl side, *3 side chain or, on linkers, in order; H or OH if unused. Where a SMILES comes first, the peptide text is derived from it. Bridges are numbered along the chain shown (N, C = ends). Side-chain parts run from the residue outwards. [ ]: non-standard residue; d: D form. The star is where a group is joined. X14 = CC(=O)N(C)CCCC[C@H](CC(=O)C1(N*)CCOCC1)C(=O)N[C@@H](CC(N)=O)C(=O)N[C@@H](Cc1cccnc1)C(=O)N(C)CC(=O)N(C)C; Me3N+(CH2)2O(CH2)2O(CH2)2CO = C[N+](C)(C)CCOCCOCCC(=O)*; PEG12 = NCCOCCOCCOCCOCCOCCOCCOCCOCCOCCOCCOCCOCCC(=O)O; Trp(7-Me) = Cc1cccc2c(C[C@H](N)C(=O)O)c[nH]c12; C22 diacid = O=C(O)CCCCCCCCCCCCCCCCCCCCC(=O)*; C18 diacid = O=C(O)CCCCCCCCCCCCCCCCC(=O)*; γGlu = O=C(O)[C@H](CCC(=O)[*:2])N[*:1]; 2Nal = N[C@@H](Cc1ccc2ccccc2c1)C(=O)O; AEF = NCCOc1ccc(C[C@H](N)C(=O)O)cc1; 3Pal = N[C@@H](Cc1cccnc1)C(=O)O; Lys(Me) = CNCCCC[C@H](N)C(=O)O; Pen = CC(C)(S)[C@H](N)C(=O)O; Thp = NC1(C(=O)O)CCOCC1; X1 = C[N+](C)(C)CCCCC*; AEEA = NCCOCCOCC(=O)O; Sar = CNCC(=O)O

Tests used:
[1] = target: T1, IL-23R (Homo sapiens, UniProt Q5VWK5); experiment: IL23R Reporter Assay; assay type: cell-based; conditions: HEK293 cells containing IL-23R, IL-12Rβ1 and STAT-inducible firefly luciferase reporter; 10 ng/mL IL-23 (EC90); 5 h
T1 construct: HEK293 cells containing IL-23R, IL-12Rβ1 and a firefly luciferase reporter gene driven by a STAT-inducible promoter (Promega); host or cells: HEK293
T1 sequence (Q5VWK5 24-629): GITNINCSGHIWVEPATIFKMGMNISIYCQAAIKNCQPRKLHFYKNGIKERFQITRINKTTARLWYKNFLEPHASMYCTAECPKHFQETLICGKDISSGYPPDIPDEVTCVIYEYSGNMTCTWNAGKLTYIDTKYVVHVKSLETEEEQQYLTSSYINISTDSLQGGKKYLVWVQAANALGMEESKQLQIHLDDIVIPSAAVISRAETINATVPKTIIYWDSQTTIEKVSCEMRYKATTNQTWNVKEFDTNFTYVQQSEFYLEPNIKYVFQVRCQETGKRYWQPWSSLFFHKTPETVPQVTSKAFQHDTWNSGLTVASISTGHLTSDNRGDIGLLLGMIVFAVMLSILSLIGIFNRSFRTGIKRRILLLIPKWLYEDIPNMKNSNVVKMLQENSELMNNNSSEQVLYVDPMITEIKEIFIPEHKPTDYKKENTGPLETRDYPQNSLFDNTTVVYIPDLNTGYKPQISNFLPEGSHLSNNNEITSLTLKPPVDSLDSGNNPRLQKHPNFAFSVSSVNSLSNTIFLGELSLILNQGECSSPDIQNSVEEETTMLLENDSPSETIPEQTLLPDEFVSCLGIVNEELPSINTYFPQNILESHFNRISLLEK
Method in brief: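 IC50 values were fitted with a 4-parameter Hill equation to luciferase signal, scaled between IL-23-only wells (0% inhibition) and 30 μM reference inhibitor (100%). The readout was a STAT-inducible reporter in IL-23R/IL-12Rβ1 HEK293 cells, stimulated with added 10 ng/mL IL-23 (EC90) for 5 h at 37° C and developed with BioGlo.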

[2] = system: IL-23-stimulated phosphorylated STAT3 in peripheral blood mononuclear cells (PBMCs); experiment: PBMC pSTAT3 Assay; assay type: cell-based; conditions: PBMCs from healthy donors; 30 min preincubation with peptide; IL-23 5 ng/mL for 30 min; phospho-STAT3 by MSD
Method in brief: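 Phospho-STAT3 quantified by Meso Scale assay in lysates of PBMCs exposed to IL-23 (5 ng/mL, 30 min, 37 °C) after 30 min peptide pretreatment. Cells were cryopreserved donor PBMCs activated 4 days with anti-CD3 plus IL-1β (100 ng/mL) and starved ~4 h; IC50 reported.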

IC50 [1]	SMILES	IC50 [2]
< 50 nM	CC(=O)NCCCC[C@@H]1NC(=O)[C@H](Cc2c[nH]c3c(C)cccc23)NC(=O)[C@H]([C@@H](C)O)NC(=O)[C@H](CC(N)=O)NC(=O)[C@@H](NC(=O)[C@@H](CCCCNC(=O)CCOCCOCCOCCOCCOCCOCCOCCOCCOCCOCCOCCOCCNC(=O)CC[C@H](NC(=O)CCCCCCCCCCCCCCCCC(=O)O)C(=O)O)NC(C)=O)C(C)(C)SSC(C)(C)[C@@H](C(=O)N[C@@H](Cc2ccc(OCCN)cc2)C(=O)N[C@@H](Cc2ccc3ccccc3c2)C(=O)NC2(C(=O)N[C@@H](CCC(=O)O)C(=O)N[C@@H](CC(N)=O)C(=O)N[C@@H](Cc3cccnc3)C(=O)N(C)CC(N)=O)CCOCC2)NC1=O [compound 117, MeCO-k(PEG12gEC18OH)-Pen(3)-N-T-7MeW-K(Ac)-Pen(3)-AEF-2Nal-THP-E-N-3Pya-Sar-CONH2] (Ac-[dK]([PEG12-γGlu-C18 diacid])[Pen]NT[Trp(7-Me)]K(Ac)[Pen][AEF][2Nal][Thp]EN[3Pal][Sar]-NH2; disulfide 2-7)	< 0.5 nM
< 50 nM	CC(=O)N(C)CCCC[C@@H]1NC(=O)[C@H](Cc2c[nH]c3c(C)cccc23)NC(=O)[C@H]([C@@H](C)O)NC(=O)[C@H](CC(=O)N(C)C)NC(=O)[C@@H](NC(=O)COCCOCCNC(=O)COCCOCCNC(=O)CC[C@H](NC(=O)CCCCCCCCCCCCCCCCC(=O)O)C(=O)O)C(C)(C)SSC(C)(C)[C@@H](C(=O)N[C@@H](Cc2ccc(OCCCCC[N+](C)(C)C)cc2)C(=O)N[C@@H](Cc2ccc3ccccc3c2)C(=O)NC2(C(=O)N[C@@H](CCCCN(C)C(C)=O)C(=O)N[C@@H](CC(N)=O)C(=O)N[C@@H](Cc3cccnc3)C(=O)N(C)CC(=O)N(C)C)CCOCC2)NC1=O [compound 118, HOC18gEPEG2PEG2CO-Pen(3)-N(N(Me)2)-T-7MeW-K(NMeAc)-Pen(3)-TMAPF-2Nal-THP-K(NMeAc)-N-3Pya-Sar-CON(Me)2] ({C18 diacid-γGlu-AEEA-AEEA}-[Pen]D(NMe2)T[Trp(7-Me)][Lys(Me)](Ac)[Pen]Y(X1)[2Nal][Thp][Lys(Me)](Ac)N[3Pal][Sar]-NMe2; disulfide 1-6)	< 0.5 nM
< 50 nM	CC(=O)N(C)CCCC[C@H](CC(=O)C1(NC(=O)[C@H](Cc2ccc3ccccc3c2)NC(=O)[C@H](Cc2ccc(OCCCCC[N+](C)(C)C)cc2)NC(=O)[C@H]2NC(=O)[C@H](CCCCN(C)C(C)=O)NC(=O)[C@H](Cc3c[nH]c4c(C)cccc34)NC(=O)[C@H]([C@@H](C)O)NC(=O)[C@H](CC(=O)N(C)C)NC(=O)[C@@H](NC(=O)COCCOCCNC(=O)COCCOCCNC(=O)CC[C@H](NC(=O)CCCCCCCCCCCCCCCCCCCCC(=O)O)C(=O)O)C(C)(C)SSC2(C)C)CCOCC1)C(=O)N[C@@H](CC(N)=O)C(=O)N[C@@H](Cc1cccnc1)C(=O)N(C)CC(=O)N(C)C [compound 119, HOC20gEPEG2PEG2CO-Pen(3)-N(N(Me)2)-T-7MeW-K(NMeAc)-Pen(3)-TMAPF-2Nal-THP-K(NMeAc)-N-3Pya-Sar-CON(Me)2] ({C22 diacid-γGlu-AEEA-AEEA}-[Pen]D(NMe2)T[Trp(7-Me)][Lys(Me)](Ac)[Pen]Y(X1)[2Nal]-X14; disulfide 1-6)	< 0.5 nM
< 50 nM	CC(=O)N(C)CCCC[C@@H]1NC(=O)[C@H](Cc2c[nH]c3c(C)cccc23)NC(=O)[C@H]([C@@H](C)O)NC(=O)[C@H](CC(=O)N(C)C)NC(=O)[C@@H](NC(=O)CCOCCOCC[N+](C)(C)C)C(C)(C)SSC(C)(C)[C@@H](C(=O)N[C@@H](Cc2ccc(OCCCCC[N+](C)(C)C)cc2)C(=O)N[C@@H](Cc2ccc3ccccc3c2)C(=O)NC2(C(=O)N[C@@H](CCCCNC(=O)COCCOCCNC(=O)COCCOCCNC(=O)CC[C@H](NC(=O)CCCCCCCCCCCCCCCCC(=O)O)C(=O)O)C(=O)N[C@@H](CC(N)=O)C(=O)N[C@@H](Cc3ccccc3)C(=O)N(C)CC(=O)N(C)C)CCOCC2)NC1=O [compound 120, cPEG3aCO-Pen(3)-N(N(Me)2)-T-7MeW-K(NMeAc)-Pen(3)-TMAPF-2Nal-THP-K(PEG2PEG2gEC18OH)-N-3Pya-Sar-CON(Me)2] ({Me3N+(CH2)2O(CH2)2O(CH2)2CO}-[Pen]D(NMe2)T[Trp(7-Me)][Lys(Me)](Ac)[Pen]Y(X1)[2Nal][Thp]K([AEEA-AEEA-γGlu-C18 diacid])NF[Sar]-NMe2; disulfide 1-6)	< 0.5 nM
